Measurements from patent publication US20120071496A1, “Aminopyrimidinamides As Pest Control Agents” (Bayer CropScience AG, priority 2009, published 2012).

How the values were obtained:
logP (HCOOH) = type: physicochemical; settings: for chromatographic logP: HCOOH (formic acid)
[1] = system: Spodoptera litura third instar larvae; experiment: Test against tobacco cutworm (Spodoptera litura) larvae; type: in vivo; settings: active compound concentration 100 ppm; immersed sweet potato leaves; after 7 days
Protocol: Unless not mentioned otherwise, the test solutions were prepared as follows:
Containing as solvent: Dimethylformamide, 3 parts by weight; and as emulsifier: Polyoxyethylene alkyl phenyl ether, 1 part by weight
Test Against Tobacco Cutworm (Spodoptera litura) Larvae
Leaves of sweet potato were immersed in the test solution at the appropriate concentration, and the leaves were dried in air. The leaves were then placed in a petri dish having a diameter of 9 cm, and ten Spodoptera litura at third instar larvae were released therein. The petri dishes were placed in a temperature-controlled chamber at 25° C. After 2 days and 4 days more sweet potato leaves were added. After 7 days, the number of dead larvae was counted to calculate the insecticidal activity. An insecticidal activity of 100% means that all larvae were killed, whereas an insecticidal activity of 0% means that no larva was killed.

[2] = system: mustard beetle larvae (Phaedon cochleariae); settings: application rate 500 g/ha; sprayed Chinese cabbage leaf-disks; after 7 days
Protocol: Phaedon Cochleariae —Test; (Spray Application)
Chinese cabbage (Brassica pekinesis) leaf-disks are sprayed with a preparation of the active ingredient of the desired concentration. Once dry, the leaf disks are infested with mustard beetle larvae (Phaedon cochleariae).
After 7 days mortality in % is determined.

[3] = system: green peach aphid (Myzus persicae); experiment: whole plant or invertebrate; settings: in Brassica rapa, 144 h, read-out: mortality in % (aphids killed)
Protocol: Myzus Persicae—Test; (Spray Application) 2
Solvent: 78.0 parts by weight acetone • 1.5 parts by weight dimethylformamide Emulsifier: 0.5 parts by weight alkylarylpolyglcolether
After 6 days mortality in % is determined.

Row | SMILES | insecticidal activity [1] [%] | logP (HCOOH) (logP (HCOOH); Table 2) | further results
1 | CCc1ncccc1C(=O)Nc1c(NC2CC2)ncnc1-c1ccc(Cl)cc1 [1-177, N-[4-(4-Chlorophenyl)-6-cyclopropylaminopyemidin-5-yl]-2-ethylnicotinamide] | 100 | – | chromatographic logP (logP (HCOOH); Table 2): 1.31
2 | O=C(Nc1c(NC2CC2)ncnc1-c1ccc(F)cc1F)c1cccnc1CC(F)(F)F [1-254] | 100 | 1.83 | –
3 | CCc1ncccc1C(=O)Nc1c(NC2CC2)ncnc1-c1ccc(Cn2nc(C(F)(F)F)nc2C(F)(F)F)cc1 [1-258] | 100 | 2.07 | –
4 | CCCc1ncccc1C(=O)Nc1c(NC2CC2)ncnc1-c1ccc(Cn2nc(C(F)(F)F)nc2C(F)(F)F)cc1 [1-264] | 100 | 1.9 | –
5 | CCc1ccccc1C(=O)Nc1c(NC2CC2)nc(C)nc1-c1ccccc1 [1-280] | – | – | mortality in % (beetle larvae killed) [2]: 1-280%
6 | CCc1ncccc1C(=O)Nc1c(NC2CC2)ncnc1-c1ccc(Oc2ncc(C(F)(F)F)cc2Cl)cc1 [1-310] | 100 | 1.84 | –
7 | CCc1ncccc1C(=O)Nc1c(Cl)ncnc1NC1CC1 [3-1, N-(4-Chloro-6-cyclopropylaminopyrimidin-5-yl)-2-ethylnicotinamide] | – | – | chromatographic logP (logP (HCOOH); Table 4): 0.79; mortality at 500 g/ha [3]: ≥ 80%
